Assays:
[1] = target: PKR WT (Homo sapiens, UniProt P30613); test: PKR enzyme assay (WT), LDH-coupled, absorbance 340 nm; format: biochemical; settings: wild type PKR enzyme activation
Protocol: (§1) PKR (WT or mutant) enzyme stock solution was diluted to prepare a 1.25× Reaction Mix (without ADP). 1 μL of test compound was first added to the wells followed by 40 μL of 1.25× Reaction Mix (without ADP) and incubated at room temperature (25° C.) for 60 min. The reaction was initiated with 10 μL ADP, bringing the final Reaction Mix to 1x, and the reaction progress was measured as changes in absorbance at 340 nm wavelength at room temperature.
(§2) Test compound preparation: Test compounds were prepared at 50× final concentration in DMSO. 1 to 3 dilutions were made for 11 points (for example 50 μL of 5000 μM compound was added to 100 μL 100% DMSO to yield a 1667 μM, 50 μL of this added to 100 μL DMSO to yield 556 μM, and so forth). The compounds were added to the assay as a 1 to 50 dilution (1 μL in 50 μL) to yield a top concentration of 100 μM, decreasing 3-fold for 11 points.
(§3) Reaction Mix: PKR (1.25-1000 ng/well, 0.025-20 μg/ml depending on the PKR mutant), ADP (0.05-2.3 mM depending on the PKR mutant), PEP (0.031-2 mM depending on the PKR mutant), NADH (180 μM), LDH (0.005 U/μL, Sigma #L3888), 1 mM DTT, 0.03% BSA in 1× Reaction Buffer
(§4) Reaction Buffer: 100 mM KCl, 50 mM Tris pH 7.5, 5 mM MgCl2.

[2] = target: PKR K410E (Homo sapiens, UniProt P30613, K410E); test: PKR Mutant Assay (K410E), LDH-coupled, absorbance 340 nm; format: biochemical; settings: mutant PKR K410E enzyme activation
Chain of PKR K410E (P30613 whole entry K410E): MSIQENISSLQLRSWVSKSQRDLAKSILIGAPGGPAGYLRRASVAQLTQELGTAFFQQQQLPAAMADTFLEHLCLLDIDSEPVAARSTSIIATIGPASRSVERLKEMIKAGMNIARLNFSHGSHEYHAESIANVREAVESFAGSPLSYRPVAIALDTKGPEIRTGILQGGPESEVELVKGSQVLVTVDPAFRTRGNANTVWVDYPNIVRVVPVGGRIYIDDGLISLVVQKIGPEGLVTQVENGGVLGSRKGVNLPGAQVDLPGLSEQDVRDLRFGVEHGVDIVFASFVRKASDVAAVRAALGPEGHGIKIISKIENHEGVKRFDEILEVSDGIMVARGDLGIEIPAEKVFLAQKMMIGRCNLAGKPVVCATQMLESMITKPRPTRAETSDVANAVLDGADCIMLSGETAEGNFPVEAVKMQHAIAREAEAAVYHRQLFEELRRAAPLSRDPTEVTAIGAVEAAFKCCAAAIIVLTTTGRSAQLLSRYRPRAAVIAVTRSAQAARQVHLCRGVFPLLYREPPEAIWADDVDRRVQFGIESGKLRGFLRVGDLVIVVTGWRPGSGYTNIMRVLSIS
Protocol: as §1, §2, §3, §4

[3] = target: PK R510Q (Homo sapiens, UniProt P30613, R510Q); test: PKR Mutant Assay (R510Q), LDH-coupled, absorbance 340 nm; format: biochemical; settings: mutant PKR R510Q enzyme activation
Chain of PK R510Q (P30613 whole entry R510Q): as the sequence (P30613 whole entry K410E) above, with E410K, R510Q counted along it
Protocol: as §1, §2, §3, §4

[4] = target: PKM2 WT (Homo sapiens, UniProt P14618); test: PKM2 Assay, LDH-coupled, absorbance 340 nm; format: biochemical; settings: wild type PKM2 enzyme activation
Chain of PKM2 WT (P14618 whole entry): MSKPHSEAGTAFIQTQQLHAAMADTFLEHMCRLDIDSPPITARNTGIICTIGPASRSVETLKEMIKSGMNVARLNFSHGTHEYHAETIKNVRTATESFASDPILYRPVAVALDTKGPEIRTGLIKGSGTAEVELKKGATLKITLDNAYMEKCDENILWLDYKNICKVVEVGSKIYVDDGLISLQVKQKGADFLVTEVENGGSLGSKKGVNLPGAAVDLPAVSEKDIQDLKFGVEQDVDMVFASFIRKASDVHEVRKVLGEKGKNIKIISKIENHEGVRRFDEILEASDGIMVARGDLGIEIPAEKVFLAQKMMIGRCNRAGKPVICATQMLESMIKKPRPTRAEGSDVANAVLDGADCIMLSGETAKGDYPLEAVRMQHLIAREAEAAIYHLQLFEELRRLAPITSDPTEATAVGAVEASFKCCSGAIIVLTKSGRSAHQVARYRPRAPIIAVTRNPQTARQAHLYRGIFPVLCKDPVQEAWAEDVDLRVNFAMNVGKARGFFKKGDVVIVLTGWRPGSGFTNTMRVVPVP
Protocol: PKM2 enzyme stock solution was diluted to prepare a 1.25× Reaction Mix (without ADP). 1 μL of test compound was first added to the wells followed by 40 μL of 1.25× Reaction Mix (without ADP) and incubated at room temperature (25° C.) for 60 min. The reaction was initiated with 10 μL ADP (0.4 mM final concentration), bringing the final Reaction Mix to 1x, and the reaction progress was measured as changes in absorbance at 340 nm wavelength at room temperature.
as §2
Reaction Mix: PKM2 (5 ng/well, 0.1 μg/ml), ADP (0.4 mM), PEP (0.11 mM), NADH (180 μM), LDH (0.005 U/μL, Sigma #L3888), 1 mM DTT, 0.03% BSA in 1×
as §4

[5] = tested on: RBCs; test: Cell Based ATP Assay in purified red blood cells (Cell-Titer-Glo); parameters: species or system human; settings: Homo sapiens, Erythrocyte; wild type PKR; ATP levels in RBCs, overnight at 37° C.
Protocol: Fresh blood drawn from healthy volunteers into K2EDTA tubes was collected. Whole blood was pelleted by spinning at 500 g for 10 minutes. The transfusion bag port was cut off Purecell leukocyte reduction neofilter (Fisher NC0267633) one (1) inch above filter. A 10 ml syringe barrel was attached to the remaining cut tubing attached to the neofilter. The plasma layer was removed from the pellet of the whole blood and the pellet was resuspended in 2× volume of phosphate buffered saline (PBS). 9 ml re-suspended blood cell pellet was transferred to a 10 ml syringe that was attached to the neofilter. The whole blood was allowed to gravity flow through filter until all fluid ran through upper tubing into a filter disc. The plunger was added to the syringe. The filter was inverted and air was plunged through the syringe filter system. A new 5 ml syringe was used to remove filtered RBCs from the bag by the syringe port. Purified RBCs were transferred to a 5 ml snap cap tube that had been incubated on ice. The 5 ml snap cap tube was spun at 500 g for 10 minutes at 15 C. Supernatant was aspirated and resuspended in AGAM (1×PBS, 1% glucose, 170 mg/L adenine, 5.25 g/L mannitol) at a density of 4×10^9 cells/mL.
For cell based ATP assays, the compound as described herein was prepared in 100% DMSO as a 10 mM stock. Serial dilutions (1:4) were performed in 96-well V-bottom storage plate and then added 1:100 to 96-well V-bottom plates containing AGAM. 10 μL/well of compound diluted in AGAM was added to black clear bottom assay plates. RBCs were diluted in AGAM media to a density of 1×10^7 cells/mL before added 90 μL/well to black clear bottom assay plates (final compound concentration at 0.1% DMSO concentration). Assay plates were sealed using aluminum foil seals and incubated overnight at 37° C. in a humidified chamber. ATP levels were read out using Cell-Titer-Glo (Promega).

Chain of PKR WT (P30613 whole entry): as the sequence (P30613 whole entry K410E) above, with E410K counted along it

Row | SMILES | AC50 [1] [nM] | AC50 [2] [nM] | AC50 [3] [nM] | AC50 [4] [nM] | PKR WT AC50 [1] | PKR K410E AC50 [2] | PK R510Q AC50 [3] | AC50 [5] [nM]
1 | CCc1ccc2c3cnn(Cc4cccc(OC)c4)c(=O)c3n(C)c2c1 [Cpd 43] | > 800 | > 800 | > 800 | > 800 |  |  |  | 
2 | COc1cccc(Cn2ncc3c4cc(Br)ccc4n(C)c3c2=O)c1 [Cpd 36] | > 800 | > 800 | > 800 | 301 to 800 |  |  |  | 
3 | COc1cccc(Cn2ncc3c4cc(C(F)(F)F)ccc4n(C)c3c2=O)c1 [Cpd 63] | > 800 | > 800 | > 800 | > 800 |  |  |  | 
4 | COc1cccc(Cn2ncc3c4ccc(Cc5ccccc5)cc4n(C)c3c2=O)c1 [Cpd 60] | > 800 | > 800 | 301 to 800 | 301 to 800 |  |  |  | 
5 | COc1cccc(Cn2ncc3c4n[nH]cc4n(C)c3c2=O)c1 [Cpd 29] | > 800 | > 800 | > 800 | > 800 |  |  |  | 
6 | CNC(=O)c1ccc2c(c1)c1cnn(Cc3cccc(OC)c3)c(=O)c1n2C [Cpd 38] |  |  |  | > 800 | No Fit | No Fit | No Fit | 
7 | Cn1cc(S(=O)(=O)c2ccc3c(c2)c2cnn(Cc4cccc(C(N)=O)c4)c(=O)c2n3C)cn1 [Cpd 55] | 301 to 800 | < 300 | < 300 |  |  |  |  | > 1000
8 | Cc1c2c(=O)n(Cc3cscn3)ncc2c2sc(Cc3cccc4c[nH]nc34)cn12 [Cpd 20] | < 300 | < 300 | < 300 |  |  |  |  | ≤ 1000
9 | CNC(=O)c1ccc2c3cnn(Cc4cccc(OC)c4)c(=O)c3n(C)c2c1 [Cpd 41] | > 800 |  |  | < 300 |  | No Fit | No Fit | 
10 | COc1cccc(Cn2ncc3c4cc(CO)ccc4n(C)c3c2=O)c1 [Cpd 44] | > 800 | > 800 | > 800 | 301 to 800 |  |  |  | 
11 | Cc1cccc(Cn2ncc3c4sc(Cc5ncco5)cc4n(C)c3c2=O)c1 [Cpd 5] | < 300 | < 300 | < 300 |  |  |  |  | ≤ 1000
12 | COc1cccc(Cn2ncc3c(c(C(N)=O)n4cc(C)sc34)c2=O)c1 [Cpd 12] | < 300 | < 300 | < 300 |  |  |  |  | > 1000
13 | Cc1c2c(=O)n(Cc3ccccn3)ncc2c2sc(Cc3cscn3)cn12 [Cpd 16] | < 300 | < 300 | < 300 |  |  |  |  | ≤ 1000
14 | Cc1c2c(=O)n(Cc3ccn(C)n3)ncc2n2cc(Cc3cc[nH]n3)sc12 [Cpd 24] | < 300 | < 300 | < 300 |  |  |  |  | ≤ 1000
15 | COc1cccc(Cn2ncc3c4cccc(Cc5ccccc5)c4n(C)c3c2=O)c1 [Cpd 59] | > 800 | > 800 |  | > 800 |  |  | No Fit | 
16 | Cn1c2cc(S(=O)(=O)c3ccccc3)ccc2c2cnn(Cc3cccc(C(N)=O)c3)c(=O)c21 [Cpd 54] | 301 to 800 | < 300 | < 300 |  |  |  |  | > 1000
17 | COc1cccc(Cn2ncc3c4cc(O)ccc4n(C)c3c2=O)c1 [Cpd 48] | > 800 | > 800 | > 800 | 301 to 800 |  |  |  | 
18 | Cn1c2cc(S(=O)(=O)c3cc[nH]n3)ccc2c2cnn(Cc3cccc(C(N)=O)c3)c(=O)c21 [Cpd 50] | 301 to 800 | > 800 | < 300 |  |  |  |  | > 1000
19 | Cn1c2ccc(S(=O)(=O)c3cc[nH]n3)cc2c2cnn(Cc3cccc(C(N)=O)c3)c(=O)c21 [Cpd 49] | < 300 | < 300 | < 300 |  |  |  |  | ≤ 1000
20 | Cn1ccc(Cn2ncc3c4ccc(Cc5cscn5)cc4n(C)c3c2=O)n1 [Cpd 58] | < 300 | < 300 | < 300 |  |  |  |  | ≤ 1000
21 | Cn1c2cc(Cc3cn[nH]c3)sc2c2cnn(Cc3cccc4[nH]ncc34)c(=O)c21 [Cpd 8] | < 300 |  | < 300 |  |  | No Fit |  | ≤ 1000
22 | Cn1cc(S(=O)(=O)c2ccc3c4cnn(Cc5cccc(C(N)=O)c5)c(=O)c4n(C)c3c2)cn1 [Cpd 56] | 301 to 800 | < 300 | < 300 |  |  |  |  | > 1000
23 | Cc1c2c(=O)n(Cc3cccc(C#N)c3)ncc2c2sc(Cc3ncco3)cn12 [Cpd 19] | 301 to 800 | < 300 | > 800 |  |  |  |  | > 1000
24 | Cc1c2c(=O)n(Cc3ccc4[nH]ncc4c3)ncc2c2sc(Cc3ccccn3)cn12 [Cpd 18] | < 300 | < 300 | < 300 |  |  |  |  | ≤ 1000
25 | Cc1c2c(=O)n(Cc3ccn(C)n3)ncc2n2cc(CO)sc12 [Cpd 23] | > 800 | > 800 | > 800 |  |  |  |  | > 1000
26 | Cc1c2c(=O)n(Cc3cccc(N)n3)ncc2c2sc(Cc3cc[nH]n3)cn12 [Cpd 17] | < 300 | < 300 | < 300 |  |  |  |  | ≤ 1000
27 | Cc1c2c(=O)n(Cc3ccn(C)n3)ncc2c2sc(Cc3cc[nH]n3)cn12 [Cpd 15] | < 300 | < 300 | < 300 |  |  |  |  | ≤ 1000
28 | Cn1c2cc(Cc3cccc4cn[nH]c34)sc2c2cnn(Cc3cscn3)c(=O)c21 [Cpd 6] | < 300 | < 300 | < 300 |  |  |  |  | ≤ 1000

Reference: patent US20220127267A1, “THIENO[3,2-B] PYRROLE[3,2-D]PYRIDAZINONE DERIVATIVES AND THEIR USE AS PKM2 DERIVATIVES FOR THE TREATMENT OF CANCER, OBESITY AND DIABETES RELATED DISORDERS” (Agios Pharmaceuticals, Inc., priority 2019, published 2022)
